The nature of series [1]: Identification of violacein metabolites in HLMs by LC-QTOF. The series is classed as in vitro ADME, human. Particulars: all samples after 120 min of reaction, 105 µM violacein, 5 mg/mL protein. Here is the method: The metabolism of violacein was investigated using HLMs and RLMs, by incubating the samples for 120 min under four conditions (n = 1): zero sample, phase I-only incubation, phase I and II incubation, and phase II-only incubation, as described by Godoi et al..
For all samples, 25 µL of the 843 µM violacein stock solution was added to propylene tubes and evaporated to dryness under a nitrogen stream. The dried residue was then reconstituted with 2 µL of methanol, ensuring that the final organic solvent concentration remained below 1% to minimize any potential impact on microsomal activity, as described by Jia et al..
To assess phase I metabolism, 148 μL of an NADPH-regenerating system containing 1.1 mM NADP+, 10 mM glucose-6-phosphate, 1 U/mL glucose-6-phosphate dehydrogenase, 5 mM sodium citrate, and 66 mM magnesium chloride in 100 mM phosphate buffer (pH 7.4) were added to the tubes. The solutions were pre-incubated for 5 min at 37 °C and 300 rpm in an MTC 100 thermo shaker incubator, and metabolic reactions were initiated by adding 50 μL of HLMs or RLMs (20 mg/mL), to yield final concentrations of 105 µM violacein and 5 mg of microsomal protein/mL. […]
The acquired chromatograms and mass spectra were analyzed using Insight Explore software version 1.0.0.0 (Shimadzu, Kyoto, Japan). […]

For series [2] the following is noted: buffer, 720 h, pH 5; cited from earlier work.
For series [3], the system named is experimental autoimmune encephalomyelitis (EAE). On the set-up: method as in PMID 25938431. The note with it: EAE mice, three days of treatment, intraperitoneal 3.5 mg/kg; reduced from 4; cited from earlier work.
In series [4] the test system is P. falciparum W2 strain (chloroquine-resistant). Further details: method as in PMID 29642881, PMID 33689276. Particulars: cited from earlier work.
The test system of the next series is parasitemia. Further details: method as in PMID 19273690. Particulars: C57BL/6 mice, three consecutive days, 3.75 mg/kg/day; cited from earlier work.
Series [5] concerns P. falciparum 3D7 strain (chloroquine-sensitive). Further details: method as in PMID 29642881, PMID 33689276. The note with it: P. falciparum 3D7 (chloroquine-sensitive); cited from earlier work.

One may read the IC50 as the midpoint of a concentration-inhibition curve.

Regarding `O=C1NC(c2c[nH]c3ccc(O)cc23)=C/C1=C1\C(=O)Nc2ccccc21` [violacein], the Violacein metabolized in series [1] is 30%. In addition, the “Residual pigment remaining unaltered” value in series [2] is given as “more than 80%”. In addition, the Maximum clinical score in series [3] is 2. For the same compound, the IC50 in series [4] is 500 nM; in series [5], approximately 400 nM. Moreover, the Reduction in parasitemia in the series with parasitemia is reported as 82%.
